The conditions of data set [1]: conventional sodium alkylsulfates; data from O'Lenick; cited from earlier work.
For data set [2] the following is noted: data from Mukerjee et al. (1971), cited from earlier work.
Data set [3] in a line: Static adsorption test on disaggregated Berea sandstone core particles. The format is physicochemical. The following applies: 10,000 mg/L NaCl, LSR of 40, 12 hrs. equilibration at 25° C. (FIG. 19). The text has this:
Static Adsorption Tests. A static adsorption test was used for measuring surfactant adsorption at solid-water interfaces. The procedures were adopted from the study by Hanna et al. (1977). The adsorbents used for static adsorption tests were particles disaggregated from a Berea sandstone core and sieved through a 60 mesh screen ([…]). The use of 60 mesh screen is based on the consideration that a wider and thus more representative range of particle sizes could be included. The adsorbent grains were heated in the oven overnight and cooled in a desiccator over Drierite™ before use. The surfactant concentration was measured by Total Organic Carbon (TOC) method, which represents the amount of total carbon in the sample. […] The amount of surfactant adsorbed was determined by measuring different concentrations in the solution before and after contact with the adsorbents,
Where Γ (mg/g) is the surfactant adsorption density on the adsorbents; Co and C (mg/L) are surfactant concentrations before and after adsorption tests; V (ml) is the volume of surfactant solution used in the test, and M (gram) is the mass of the adsorbents used in the test. A dimensionless quantity θ can be defined as follows: […]
Equilibrium Adsorption Time. To ensure true equilibrium adsorption, the progression of 16-4-16 adsorption level with time was recorded to identify a suitable duration for equilibration. […]

Where two headings read alike, the source gives them in different places. Marks after values point to notes of the source that are not given here.

As for `CCCCCCCCCCCCOS(=O)(=O)[O-].[Na+]` [C12—SO4^− Na^+], in data set [1], the “Krafft Point” value is 16* ° C. Moreover, the CMC was 8230** 10^−3 mmol/L in data set [2] (30° C.), 8600** 10^−3 mmol/L in data set [2] (40° C.) and 10160** 10^−3 mmol/L in data set [2] (60° C.).

Consider `CCCCCCCCCCCCCCCCOS(=O)(=O)[O-].[Na+]` [C16—SO4^− Na^+, sodium hexadecyl sulfate], for which the “maximum adsorption density, trend among surfactants” value in data set [3] is reported as 16-4-16<SHS<S13-C. Moreover, the “Krafft Point” value in data set [1] was 45* ° C. Further, the CMC in data set [2] (40° C.) was 580** 10^−3 mmol/L.

For the molecule `CCCCCCCCCCCCCCOS(=O)(=O)[O-].[Na+]` [C14—SO4^− Na^+], the “Krafft Point” value in data set [1] was 28* ° C. Besides, the CMC in data set [2] (30° C.) was 2080** 10^−3 mmol/L; in data set [2] (40° C.), 2210** 10^−3 mmol/L; in data set [2] (60° C.) it was 2770** 10^−3 mmol/L.

The values are drawn from patent publication US20140096967A1, “SALT-TOLERANT ANIONIC SURFACTANT COMPOSITIONS FOR ENHANCED OIL RECOVERY (EOR) APPLICATIONS” (Board of Regents, The University of Texas System, priority 2012, published 2014).
